pIC50: −log10 of the molar value. Activity calls are given as the source filed them. No cut-off for these calls is given here.
What was measured:
PBMC [1] = assay: Effect on enriched human PBMC proliferation assessed as proliferating cells at IC50 after 72 hrs using CSFE labeling by flow cytometry; format: functional
PBMC [2] = assay: Induction of enriched human PBMC proliferation assessed as non-proliferating cells at IC50 after 72 hrs using CSFE labeling by flow cytometry; format: functional
Ca-Ski [3] = assay: Cell cycle arrest in human CaSki cells assessed as DNA accumulation at G1 phase at IC50 after 24 hrs using propidium iodide staining by flow cytometry; format: functional, cell-based
Ca-Ski [4] = assay: Induction of necrosis of human CaSki cells assessed as LDH accumulation in culture supernatant at IC50 after 24 hrs by INT assay; format: functional
[5] = Induction of necrosis of PHA-activated human lymphocytes assessed as LDH accumulation in culture supernatant at IC50 after 72 hrs by INT assay; format: cell-based; conditions: lymphocyte
Ca-Ski [6] = assay: Cell cycle arrest in human CaSki cells assessed as DNA accumulation at sub G1 phase at IC50 after 24 hrs using propidium iodide staining by flow cytometry; format: functional, cell-based
Ca-Ski [7] = assay: Effect on human CaSki cell morphology assessed as formation of small spherical cells at IC50 after 24 hrs by microscopy; format: functional, cell-based
Ca-Ski [8] = assay: Induction of apoptosis in human CaSki cells assessed as chromatin condensation at IC50 after 24 hrs by DAPI staining; format: functional, cell-based
Ca-Ski [9] = assay: Cell cycle arrest in human CaSki cells assessed as DNA accumulation at S phase at IC50 after 24 hrs using propidium iodide staining by flow cytometry; format: functional, cell-based
Ca-Ski [10] = assay: Cell cycle arrest in human CaSki cells assessed as DNA accumulation at G2/M phase at IC50 after 24 hrs using propidium iodide staining by flow cytometry; format: functional, cell-based
[11] = Cytotoxicity against human fibroblast cells at IC50 after 24 hrs by crystal violet staining; format: cell-based
Ca-Ski [12] = assay: Induction of apoptosis in human CaSki cells assessed as increase in active caspase-3 expression at IC50 after 24 hrs by immunocytochemistry; format: functional, cell-based
Ca-Ski [13] = assay: Antiproliferative activity against human CaSki cells after 24 hrs using crystal violet staining by ELISA; format: functional, cell-based
Ca-Ski [14] = assay: Induction of apoptosis in human CaSki cells assessed as fragmentation of genomic DNA at IC50 after 24 hrs by TUNEL assay; format: functional, cell-based
Ca-Ski [15] = assay: Effect on human CaSki cell morphology assessed as formation of large cells at IC50 after 24 hrs by microscopy; format: functional, cell-based
Ca-Ski [16] = assay: Induction of apoptosis in human CaSki cells assessed as appearance of apoptotic bodies at IC50 after 24 hrs by DAPI staining; format: functional, cell-based
Ca-Ski [17] = assay: Effect on human CaSki cell morphology assessed as formation of non-reflective small inclusion bodies at IC50 after 24 hrs by microscopy; format: functional, cell-based

Structure (SMILES)	Activity (PBMC [1])	Activity (PBMC [2])	Activity (Ca-Ski [3])	Activity (Ca-Ski [4])	Activity [5]	Activity (Ca-Ski [6])	Activity (Ca-Ski [7])	Activity (Ca-Ski [8])	Activity (Ca-Ski [9])	Activity (Ca-Ski [10])	Activity [11]	Activity (Ca-Ski [12])	Activity (Ca-Ski [13])	pIC50 (Ca-Ski [13])	Activity (Ca-Ski [14])	Activity (Ca-Ski [15])	Activity (Ca-Ski [16])	Activity (Ca-Ski [17])
CC(=O)O[C@H]1CC[C@@]2(C)C(=CC[C@H]3[C@@H]4C[C@H](OC(C)=O)[C@H]([C@H](C)C(=O)CC[C@@H](C)CO)[C@@]4(C)CC[C@@H]32)C1	76.15%	23.85%	Active	inactive	Not Active	Active	Active	Active	Active	Active	Not Active	Active	Dose-dependent effect	4.33	inactive	–	–	–
CC(=O)O[C@H]1CC[C@@]2(C)[C@@H](CC[C@@H]3[C@@H]2CC(=O)[C@]2(C)[C@@H]([C@H](C)C(=O)CC[C@@H](C)CO)[C@@H](OC(C)=O)C[C@@H]32)C1	63.68%	36.34%	inactive	28%	Not Active	Active	–	–	Active	inactive	18%	Active	Dose-dependent effect	3.73	Active	Active	Active	Active
